Reference: publication PMC10961402, “Safety, tolerability, pharmacokinetics and pharmacokinetic-pharmacodynamic modeling of cetagliptin in patients with type 2 diabetes mellitus” (Frontiers in Endocrinology, 2024)
Read-outs that look alike come from different tables or passages of the source.

Experiments:
Assay type in all cases: in vivo, human
[1] = Plasma pharmacokinetics after single and multiple oral doses (non-compartmental analysis); conditions: patients with T2DM; for AUC(0-t): po, 100 mg
Experimental: This was a single-center, randomized, double-blind, placebo and positive-controlled, single and multiple oral-dose study. A total of 32 Chinese adults diagnosed with T2DM were recruited for this study and allocated into two dosage groups: 50 mg and 100 mg, each consisting of 16 participants. […] The positive control was designed as open label. […] Subjects underwent medication randomization on day -1, and were assigned the corresponding investigational products. They were orally administered to the drug once every morning on fasting condition for 14 consecutive days. […] After finished the dosing, another OGTT was performed on day 15. Blood samples were collected at designated time points for the analysis of PK/PD and exploratory indicators. Subjects were discharged after completion of the safety assessments on day 19. […] PK parameters were calculated using non-compartmental analysis with Phoenix WinNonlin (version 8.1, Certara, Co., Princeton, NJ, United States). Peak plasma concentration after administration (Cmax) and time to reach Cmax (Tmax) were obtained directly from the observed data, elimination half-life (t1/2) was calculated as ln2/λz using the best fit mode, where λz was the terminal elimination rate constant. Area under the plasma concentration-time curve from zero to the last measurable concentration (AUC0-t) was estimated using the linear trapezoidal method and AUC from zero to infinity (AUC0-∞) was calculated as AUC0-t+Ct/λz, where Ct was the last measured concentration. […] Apparent total plasma clearance after non-intravenous (CL/F) and apparent volume of distribution in terminal phase after non-intravenous (Vz/F) were calculated as Dose/AUC0-∞ and CL/λz, respectively.

[2] = Preliminary efficacy evaluation (FPG, 2 h PPG, HbA1c, GA); conditions: patients with T2DM; 100 mg once daily; day 14
Experimental: Blood samples for determination of fasting plasma glucose (FPG) and 2 hour postprandial plasma glucose (2 h PPG) were collected on day -2, day 7 and day 14. Additionally, blood samples for determination of glycated Hemoglobin A1C (HbA1c) and glycated Albumin (GA) were collected on day -2 and day 14. The changes of the above indexes relative to pre-treatment baseline (day -2) were evaluated and compared to investigate the preliminary efficacy of investigational product.

[3] = test system: plasma active GLP-1; assay: Plasma active GLP-1 concentration change from baseline (ELISA); conditions: patients with T2DM
Experimental: Blood samples for GLP-1 activity evaluation were collected at the same time points as for PK. 2 mL blood samples were collected for GLP-1 activity detection (20 μL DPP-4i was added to blood-collecting tubes beforehand). The tubes were placed on ice until centrifugation. The blood samples were centrifuged at 2-8°C, 1500 g for 10 minutes within 1 hour after blood collection. After centrifugation, the blood samples were evenly divided into two aliquots and stored at -80 ± 10°C. Plasma active GLP-1 concentrations were determined using a validated ELISA method. Linear calibration curves were obtained in the concentration range of 0.017-276 pM ([31]).
The change of GLP-1 concentration from baseline (△GLP-1) was calculated as follows:
Δ [GLP-1] = [GLP-1] (t) - [GLP-1] (0)
The calculated parameters for GLP-1 activity were as follows: the baseline GLP-1 value before dosing (Baseline), Rmax, TRmax, AUEC0-t, AUEC0-24h, GLP-1 concentration change at 2 h after lunch (△GLP-1-6h), GLP-1 concentration change at 2 h after dinner (△GLP-1-12h), Rmin on day 14, and the average response on day 14 (Ravg).

[4] = test system: glucose, insulin, C-peptide, and glucagon; assay: Oral glucose tolerance test (OGTT): glucose, insulin, C-peptide, glucagon; conditions: patients with T2DM
Experimental: To assess the impact of investigational products on glucose, insulin, C-peptide, and glucagon, OGTT tests were conducted on day -1 and day 15 following a fasting period of more than 8 hours. Subjects received a 75 g oral glucose dose and blood samples (1.5 mL for glucose, 3.5 mL for insulin and C-peptide, 2 mL for glucagon) were collected at 0, 0.167, 0.5, 1, 1.5, 2, and 3 h after ingestion of glucose. The PD parameters (AUEC0-t) for glucose, insulin, C-peptide, and glucagon were calculated by using drug effect module of non-compartmental method with Phoenix WinNonlin.

[5] = Safety and tolerability assessments (adverse events); conditions: patients with T2DM, 14 days
Experimental: Safety and tolerability were evaluated by monitoring adverse events (AEs), laboratory tests (including blood routine, urine routine, stool routine, blood biochemical test and coagulation function), vital signs, physical examination, 12-lead electrocardiogram and other indicators. AEs were monitored and collected throughout the study. Descriptive analysis of the type and intensity of AEs were conducted according to NCICTC AE5.0.

[6] = 100 mg oral once daily, day 14, median (range)
[7] = cetagliptin group (50 or 100 mg, n=20) / sitagliptin group (100 mg, n=8)

N[C@@H](CC(=O)N1CCn2c(nnc2C(F)(F)F)C1)Cc1cc(F)c(F)cc1F [Sitagliptin, sitagliptin, reference compound]
half-life ([1]; human, in vivo, 100 mg oral once daily, day 14): 9.12 ± 0.664 h | AUC(0-t) ([1]; human, plasma, 100 mg oral once daily, day 14, read-out: AUC0-24h): 3760 ± 748 ng·h/mL | AUC(0-t) ([1]; human, plasma, 100 mg oral once daily, day 14, read-out: AUC0-t): 4290 ± 783 ng·h/mL | AUC(0-t) ([1]; human, plasma, 100 mg oral, day 1, read-out: AUC0-24h): 3340 ± 522 ng·h/mL | AUC(0-inf) ([1]; human, plasma, 100 mg oral once daily, day 14): 4380 ± 789 ng·h/mL | Cmax ([1]; human, plasma, 100 mg oral once daily, day 14, read-out: Cmax,ss): 419 ± 137 ng/mL | Vd/F ([1]; human, plasma, 100 mg oral once daily, day 14, read-out: Vz,ss/F): 362 ± 75.9 L | Tmax ([1]; human, plasma, 100 mg oral, day 1, median (range), read-out: Tmax): 1.5 h | CLss/F ([1]; 100 mg oral once daily, day 14): 27.5 ± 5.12 L/h | Cavg ([1]; 100 mg oral once daily, day 14): 157 ± 31.2 ng/mL | Tmax,ss [1, 6]: 3.00 (0.500-5.00) h | Cmax ([1]; 100 mg oral, day 1): 394 ± 105 ng/mL | time of daily dosing after which steady-state conditions were reached ([1]; once daily dosing, trough concentrations days 7, 10, 14): 1 week | decrease of HbA1c compared with baseline [2]: 0.44% | GLP-1 Baseline (value before dosing) ([3]; 100 mg group, day 1 before dosing): 0.442 ± 0.406 pM | R0h,ss (baseline plasma active GLP-1 on day 14) ([3]; 100 mg oral once daily, day 14): 1.700 ± 0.851 pM | △GLP-1-6h (change at 2 h after lunch) ([3]; 100 mg oral once daily, day 14): 6.553 ± 3.739 pM | △GLP-1-12h (change at 2 h after dinner) ([3]; 100 mg oral once daily, day 14): 5.775 ± 4.299 pM | △GLP-1 Ravg,ss ([3]; 100 mg oral once daily, day 14): 3.821 ± 2.361 pM | △GLP-1 Rmax,ss ([3]; 100 mg oral once daily, day 14): 8.080 ± 3.592 pM | R0h,ss (baseline plasma active GLP-1 on day 14) ([3]; 100 mg oral once daily, day 14, listed as sitagliptin): 1.700 pM | △GLP-1 TRmax,ss [3, 6]: 5.00 (5.00-6.00) h | △GLP-1-6h (change at 2 h after lunch) ([3]; 100 mg oral, day 1): 3.491 ± 1.703 pM | △GLP-1-12h (change at 2 h after dinner) ([3]; 100 mg oral, day 1): 3.764 ± 2.490 pM | △GLP-1 AUEC0-24h ([3]; 100 mg oral, day 1): 61.2 ± 28.6 pM·h | △GLP-1 Rmax ([3]; 100 mg oral, day 1): 5.901 ± 2.375 pM | △GLP-1 TRmax ([3]; 100 mg oral, day 1, median (range)): 7.00 (5.00-12.00) h | glucose AUEC0-t (OGTT) ([4]; 100 mg group, day -1 (baseline before dosing)): 44.07 ± 5.74 mmol·h/L | glucose AUEC0-t (OGTT) ([4]; day 15 after 100 mg once daily for 14 days): 43.40 ± 6.51 mmol·h/L | intensity of drug-related adverse events ([5]; cetagliptin 50 or 100 mg, sitagliptin 100 mg): mild | number of drug-related AEs [5, 7]: 7 AEs | number of subjects reporting drug-related AEs [5, 7]: 3 subjects
